Measurements as given in the NIST ThermoML archive (doi:10.1021/acs.jced.8b00132).
Where “and” joins values, the source holds several entries; their conditions need not be identical. Equal entries are not always repeated.

O=C(C(F)(F)C(F)(F)F)C(F)(C(F)(F)F)C(F)(F)F [dodecafluoro-2-methylpentan-3-one]
Details | thermal conductivity
416.9 K, 36 kPa, Gas, hot wire | 0.02006 W/m/K
416.9 K, 371 kPa, Gas, hot wire | 0.0221 W/m/K
416.9 K, 588 kPa, Gas, hot wire | 0.02223 W/m/K
416.9 K, 16292 kPa, Liquid, transient hot wire | 0.05129 W/m/K
416.91 K, 372 kPa, Gas, hot wire | 0.02173 W/m/K
416.94 K, 50897 kPa, Liquid, transient hot wire | 0.06577 W/m/K
416.94 K, 50918 kPa, Liquid, transient hot wire | 0.06559 W/m/K
416.96 K, 1022 kPa, Gas, transient hot wire | 0.02164 W/m/K
416.96 K, 2206 kPa, Liquid, transient hot wire | 0.04045 W/m/K
416.96 K, 24851 kPa, Liquid, transient hot wire | 0.05549 W/m/K
416.96 K, 24868 kPa, Liquid, transient hot wire | 0.05555 W/m/K
416.96 K, 35761 kPa, Liquid, transient hot wire | 0.06013 W/m/K
416.97 K, 1022 kPa, Gas, transient hot wire | 0.02164 W/m/K
416.97 K, 2207 kPa, Liquid, transient hot wire | 0.04051 W/m/K
416.97 K, 35765 kPa, Liquid, transient hot wire | 0.06009 W/m/K
416.98 K, 10573 kPa, Liquid, transient hot wire | 0.04835 W/m/K
416.98 K, 10595 kPa, Liquid, transient hot wire | 0.04788 W/m/K
417 K, 369 kPa, Gas, hot wire | 0.0224 W/m/K
417 K, 1132 kPa, Gas, transient hot wire | 0.02284 W/m/K
417.01 K, 369 kPa, Gas, hot wire | 0.02218 W/m/K
417.01 K, 1132 kPa, Gas, transient hot wire | 0.02288 W/m/K
417.02 K, 6421 kPa, Liquid, transient hot wire | 0.04518 W/m/K
417.03 K, 36 kPa, Gas, hot wire | 0.01958 W/m/K
417.04 K, 587 kPa, Gas, hot wire | 0.0216 W/m/K
417.04 K, 6421 kPa, Liquid, transient hot wire | 0.0448 W/m/K
417.05 K, 587 kPa, Gas, hot wire | 0.02156 W/m/K
417.06 K, 16291 kPa, Liquid, transient hot wire | 0.05136 W/m/K
417.06 K, 16299 kPa, Liquid, transient hot wire | 0.05141 W/m/K
417.07 K, 1170 kPa, Liquid, transient hot wire | 0.03917 W/m/K
417.07 K, 50875 kPa, Liquid, transient hot wire | 0.06482 W/m/K
417.08 K, 3783 kPa, Liquid, transient hot wire | 0.04192 W/m/K
417.08 K, 3784 kPa, Liquid, transient hot wire | 0.04234 W/m/K
417.08 K, 50878 kPa, Liquid, transient hot wire | 0.06554 W/m/K
417.11 K, 1022 kPa, Gas, transient hot wire | 0.02183 W/m/K
417.11 K, 1023 kPa, Gas, transient hot wire | 0.02181 W/m/K
417.11 K, 24870 kPa, Liquid, transient hot wire | 0.05563 W/m/K
417.11 K, 35758 kPa, Liquid, transient hot wire | 0.06018 W/m/K
417.11 K, 35760 kPa, Liquid, transient hot wire | 0.06018 W/m/K
417.12 K, 368 kPa, Gas, hot wire | 0.02238 W/m/K
417.12 K, 24862 kPa, Liquid, transient hot wire | 0.05569 W/m/K
417.13 K, 2206 kPa, Liquid, transient hot wire | 0.04049 W/m/K
417.13 K, 10587 kPa, Liquid, transient hot wire | 0.0479 W/m/K
417.14 K, 36 kPa, Gas, hot wire | 0.02006 W/m/K
417.15 K, 141 kPa, Gas, hot wire | 0.02023 W/m/K and 0.0203 W/m/K
417.15 K, 588 kPa, Gas, hot wire | 0.02157 W/m/K
417.15 K, 2206 kPa, Liquid, transient hot wire | 0.04048 W/m/K
417.15 K, 10596 kPa, Liquid, transient hot wire | 0.04784 W/m/K
417.16 K, 36 kPa, Gas, hot wire | 0.01976 W/m/K
417.16 K, 367 kPa, Gas, hot wire | 0.02181 W/m/K
417.16 K, 587 kPa, Gas, hot wire | 0.02144 W/m/K
417.17 K, 1132 kPa, Gas, transient hot wire | 0.02232 W/m/K
417.21 K, 6422 kPa, Liquid, transient hot wire | 0.04496 W/m/K
417.21 K, 50843 kPa, Liquid, transient hot wire | 0.06558 W/m/K
417.22 K, 6424 kPa, Liquid, transient hot wire | 0.04481 W/m/K
417.22 K, 16290 kPa, Liquid, transient hot wire | 0.05134 W/m/K
417.23 K, 16286 kPa, Liquid, transient hot wire | 0.05137 W/m/K
417.23 K, 50866 kPa, Liquid, transient hot wire | 0.06561 W/m/K
417.27 K, 36 kPa, Gas, hot wire | 0.02022 W/m/K and 0.02032 W/m/K
417.28 K, 1023 kPa, Gas, transient hot wire | 0.02198 W/m/K and 0.02197 W/m/K
417.28 K, 3783 kPa, Liquid, transient hot wire | 0.04235 W/m/K
417.28 K, 3784 kPa, Liquid, transient hot wire | 0.04243 W/m/K
417.28 K, 24853 kPa, Liquid, transient hot wire | 0.0557 W/m/K
417.28 K, 24856 kPa, Liquid, transient hot wire | 0.0557 W/m/K
417.28 K, 35752 kPa, Liquid, transient hot wire | 0.06016 W/m/K
417.28 K, 35756 kPa, Liquid, transient hot wire | 0.06019 W/m/K
417.29 K, 367 kPa, Gas, hot wire | 0.02172 W/m/K
417.29 K, 996 kPa, Gas, transient hot wire | 0.02211 W/m/K and 0.02184 W/m/K
417.31 K, 140 kPa, Gas, hot wire | 0.02018 W/m/K
417.32 K, 140 kPa, Gas, hot wire | 0.02001 W/m/K
417.32 K, 10582 kPa, Liquid, transient hot wire | 0.04781 W/m/K
417.32 K, 10584 kPa, Liquid, transient hot wire | 0.04786 W/m/K
417.33 K, 788 kPa, Gas, transient hot wire | 0.02096 W/m/K
417.33 K, 791 kPa, Gas, transient hot wire | 0.02134 W/m/K
417.33 K, 2205 kPa, Liquid, transient hot wire | 0.04065 W/m/K
417.34 K, 2205 kPa, Liquid, transient hot wire | 0.0406 W/m/K
417.36 K, 50814 kPa, Liquid, transient hot wire | 0.06551 W/m/K
417.37 K, 50821 kPa, Liquid, transient hot wire | 0.0652 W/m/K
417.39 K, 16280 kPa, Liquid, transient hot wire | 0.05131 W/m/K
417.4 K, 6421 kPa, Liquid, transient hot wire | 0.0453 W/m/K
417.4 K, 6422 kPa, Liquid, transient hot wire | 0.04487 W/m/K
417.41 K, 597 kPa, Gas, transient hot wire | 0.02073 W/m/K
417.42 K, 36 kPa, Gas, hot wire | 0.02028 W/m/K and 0.02029 W/m/K
417.43 K, 595 kPa, Gas, transient hot wire | 0.02069 W/m/K
417.43 K, 1024 kPa, Gas, transient hot wire | 0.02226 W/m/K and 0.02228 W/m/K
